# Assay results: patent US20260000766A1, “ULTRASOUND OPTOGENETIC COMPOSITIONS AND METHODS” (BOARD OF REGENTS, THE UNIVERSITY OF TEXAS SYSTEM, priority 2022, published 2026)
# Assay: Fluorescence spectrum tests of L012 at different pH and H2O2 concentration
# Type: physicochemical
# Procedure: The fluorescence spectrum tests of L012 at different pH and H2O2 concentration. the quantum yield of the L012 solution at different Ph was investigated. 1 mL L012 solution (0.5 mg/mL) with pH 7.4, 8.5, and 10.0 was mixed with H2O2, where the final concentration of H2O2 was 250 μM. The fluorescence spectrum was recorded via Fluorolog3 Fluorometer. In addition, we also investigated the quantum yield of the L012 solution with different H2O2 concentrations at pH 7.4. 1 mL L012 solution (0.5 mg/mL) with different H2O2 concentrations (50, 250, and 500 μM) at pH 7.4 was prepared at first, and the fluorescence spectrum was also recorded via Fluorolog3 Fluorometer.
smiles,measurement,setting,value
"Nc1c(-c2ccccc2)nc(Cl)c2c([O-])n[nH]c(=O)c12.[Na+] [L012, L012 sodium salt]",improvement of fluorescence intensity,H2O2 concentration increased from 50 to 500 μM,around four
same,increase of fluorescence intensity,pH changed from 7.4 to 10,around 30%
